# What was measured:
# [1] = system: HCT116-S100A4 cells; assay: Wound healing assay (directed migration); type: cell-based, human; settings: 1 μM daily, 4 days
# Protocol: (§1) For wound healing assay HCT116, SW620, LS174T, SW480 and DLD-1 cells were grown to form 60% confluent monolayers of cells in which a wound of about 300 μm width was inflicted with a sterile pipette tip. The medium was exchanged to remove non-adherent cells and the wounded monolayer was treated with 1 μM niclosamide or the respective amount of DMSO every 24 hours for 4 consecutive days. The progress of wound closure was monitored with microphotographs of 10× magnification taken with the Leica DM IL light microscope (Leica Microsystems) on day 0 and day 4. The wound healing experiment was performed three independent times.
# (§2) (A) Cell migration of HCT116-vector and HCT116-S100A4 cells exposed to niclosamide treatment. Cells were treated with 1 μM niclosamide for 24 hours and migration rates were measured with Boyden chamber assay. […] Cells were treated with 1 μM niclosamide for 24 hours and cell invasion was determined by Boyden chamber assay. (C) Directed migration of HCT116-vector and HCT116-S100A4 cells exposed to niclosamide treatment analyzed by wound healing assay. […] Cells were treated daily with 1 μM niclosamide and cell viability was determined with MTT assay. […] (F) Quantification of colonies formed. Number of colonies (of more than 4 cells) was counted and normalized to solvent-treated HCT116-vector cells. […]
# [2] = system: HCT116-vector cells; assay: Wound healing assay (directed migration); type: cell-based, human; settings: 1 μM daily, 4 days
# Protocol: as §1, §2
structure (smiles),measurement,setting,value
"O=C(Nc1ccc([N+](=O)[O-])cc1Cl)c1cc(Cl)ccc1O [niclosamide, 2′,5-dichloro-4′-nitrosalicylanilide]",wound closure,[1],able to migrate into the wound and close the gap
same,wound closure,[2],impaired

# — patent US11331290B2, “Niclosamide for the treatment of cancer metastasis” (Max-Delbrück-Centrum für Molekulare Medizin in der …, priority 2011, dated 2022)
